In patent US6376510B1, “Neuromuscular relaxants” (Newlaxant LLC, priority 1997, dated 2002):

Assays:
[1] = tested on: anesthetized monkeys; assay: In vivo neuromuscular block and cardiovascular side effects, monkey (Example 8, Table 6); conditions: for ED50: Primates, intravenous dose causing 50% neuromuscular block, read-out: ED50; for ΔBP (change in arterial blood pressure) / ΔH (change in heart rate): at 80-85% neuromuscular blocking dose; for RI (recovery index): spontaneous recovery, 25-75% neuromuscular response; for Onset: time to 80-85% neuromuscular block
In short: (§1)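 Electromyographic and mechanomyographic responses quantified. Monkeys sedated with intramuscular ketamine, then general anesthesia with intravenous pentobarbital and propofol; juvenile pigs induced with inhaled halothane.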

[2] = tested on: dogs; assay: animal or person; assay type: in vivo; conditions: dog; for ED50: Canis lupus familiaris, intravenous dose causing 50% neuromuscular block, read-out: ED50; for ΔBP (change in arterial blood pressure) / ΔH (change in heart rate): at 80-85% neuromuscular blocking dose; for RI (recovery index): spontaneous recovery, 25-75% neuromuscular response; for Onset: time to 80-85% neuromuscular block
[3] = tested on: anesthetized juvenile pigs; assay: animal or person; assay type: in vivo; conditions: pig; for ED50: Sus scrofa, intravenous dose causing 50% neuromuscular block, read-out: ED50; for VB (vagal block) / ΔBP (change in arterial blood pressure) / ΔH (change in heart rate): at 80-85% neuromuscular blocking dose; for RI (recovery index): spontaneous recovery, 25-75% neuromuscular response; for Onset: time to 80-85% neuromuscular block
In short: as §1

[4] = tested on: anesthetized rats (evoked responses of anterior tibial muscle); assay: In vivo neuromuscular block and cardiovascular side effects, anesthetized rat (Example 8, Table 3); conditions: for ED50: Rattus norvegicus, iv; for VB (vagal block) / ΔBP (change in arterial blood pressure) / ΔH (change in heart rate) / RI (recovery index) / Onset: rat; for VB (vagal block) / ΔBP (change in arterial blood pressure) / ΔH (change in heart rate): at 80-85% neuromuscular blocking dose; for RI (recovery index): spontaneous recovery, 25-75% neuromuscular response; for Onset: time to 80-85% neuromuscular block
In short: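 Pentobarbital-anesthetized (i.p.), ventilated adult male rats given saline-dissolved agents i.v.; anterior tibial EMG responses to supramaximal single or train-of-four sciatic/peroneal stimuli, plus 0.1 or 1 Hz stimulation. Doses for 50%, 80%, 90% block derived. Onset: minutes to 80-85% block; RI: 25-75% spontaneous recovery; vagal block, heart rate and blood pressure changes (%) at 80-85% blocking dose.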

[5] = tested on: rabbits; assay: In vivo neuromuscular block and cardiovascular side effects, rabbit (Example 8, Table 7); conditions: for ED50: Oryctolagus cuniculus, intravenous dose causing 50% neuromuscular block, read-out: ED50; for ΔBP (change in arterial blood pressure) / ΔH (change in heart rate): at 80-85% neuromuscular blocking dose; for RI (recovery index): spontaneous recovery, 25-75% neuromuscular response; for Onset: time to 80-85% neuromuscular block
[6] = tested on: anesthetized cats (evoked responses of anterior tibial muscle); assay: animal or person; conditions: for ED50: Felis catus, iv; for VB (vagal block) / ΔBP (change in arterial blood pressure) / ΔH (change in heart rate) / RI (recovery index) / Onset: cat; for VB (vagal block) / ΔBP (change in arterial blood pressure) / ΔH (change in heart rate): at 80-85% neuromuscular blocking dose; for RI (recovery index): spontaneous recovery, 25-75% neuromuscular response; for Onset: time to 80-85% neuromuscular block
In short: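 Adult cats anesthetized i.p. with 70 mg/kg alpha chloralose plus 0.5 g/kg ethylurethane; agents in saline given i.v. Anterior tibial muscle responses to supramaximal single or train-of-four stimuli of sciatic or peroneal nerve recorded electromyographically and mechanomyographically, alongside blood pressure and heart rate.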

CC(=O)Oc1ccc(C[N+]2(C)[C@@H]3CC[C@H]2C[C@@H](OC(=O)C2CCC2C(=O)O[C@H]2C[C@H]4CC[C@@H](C2)[N+]4(C)Cc2ccc(OC(C)=O)c(OC(C)=O)c2)C3)cc1OC(C)=O.[Br-].[Br-] (stereo partly drawn) [bis[N-(3,4-diacetoxybenzyl)tropanium-3α-yl]cyclobutane-1,2-dicarboxylate dibromide]
ED50 [1]: 0.054 mg/kg | ΔBP (change in arterial blood pressure) [1]: 0% | ΔH (change in heart rate) [1]: 0% | RI (recovery index) [1]: 0.4 min | Onset [1]: 0.95 min | ED50 [2]: 0.1 mg/kg | ΔBP (change in arterial blood pressure) [2]: −7% | ΔH (change in heart rate) [2]: 10% | RI (recovery index) [2]: 0.65 min | Onset [2]: 0.9 min | ED50 [3]: 0.275 mg/kg | VB (vagal block) [3]: 42% | ΔBP (change in arterial blood pressure) [3]: 0% | ΔH (change in heart rate) [3]: 0% | RI (recovery index) [3]: 0.85 min | Onset [3]: 0.68 min | ED50 [4]: 0.218 mg/kg | VB (vagal block) [4]: 5% | ΔBP (change in arterial blood pressure) [4]: 0% | ΔH (change in heart rate) [4]: 0% | RI (recovery index) [4]: 0.45 min | Onset [4]: 0.7 min | ED50 [5]: 0.078 mg/kg | ΔBP (change in arterial blood pressure) [5]: 0% | ΔH (change in heart rate) [5]: 0% | RI (recovery index) [5]: 0.6 min | Onset [5]: 0.8 min | ED50 [6]: 0.135 mg/kg | VB (vagal block) [6]: 12% | ΔBP (change in arterial blood pressure) [6]: 0% | ΔH (change in heart rate) [6]: 0% | RI (recovery index) [6]: 0.5 min | Onset [6]: 0.95 min

CC(=O)Oc1ccc(C[N+]2(C)[C@@H]3CC[C@H]2C[C@@H](OC(=O)C2CCCC(C(=O)O[C@H]4C[C@H]5CC[C@@H](C4)[N+]5(C)Cc4ccc(OC(C)=O)c(OC(C)=O)c4)C2)C3)cc1OC(C)=O.[Br-].[Br-] (stereo partly drawn) [bis[N-(3,4-diacetoxybenzyl)tropanium-3α-yl]cyclohexane-1,3-dicarboxylate dibromide]
ED50 [1]: 0.075 mg/kg | ΔBP (change in arterial blood pressure) [1]: 0% | ΔH (change in heart rate) [1]: 0% | RI (recovery index) [1]: 0.65 min | Onset [1]: 0.95 min | ED50 [2]: 0.128 mg/kg | ΔBP (change in arterial blood pressure) [2]: −5% | ΔH (change in heart rate) [2]: 30% | RI (recovery index) [2]: 0.55 min | Onset [2]: 0.75 min | ED50 [3]: 0.225 mg/kg | VB (vagal block) [3]: 54% | ΔBP (change in arterial blood pressure) [3]: 0% | ΔH (change in heart rate) [3]: 0% | RI (recovery index) [3]: 0.85 min | Onset [3]: 0.8 min | ED50 [4]: 0.24 mg/kg | VB (vagal block) [4]: 28% | ΔBP (change in arterial blood pressure) [4]: 0% | ΔH (change in heart rate) [4]: 0% | RI (recovery index) [4]: 0.5 min | Onset [4]: 0.65 min | ED50 [5]: 0.1 mg/kg | ΔBP (change in arterial blood pressure) [5]: 0% | ΔH (change in heart rate) [5]: 0% | RI (recovery index) [5]: 0.7 min | Onset [5]: 0.9 min | ED50 [6]: 0.11 mg/kg | VB (vagal block) [6]: 34% | ΔBP (change in arterial blood pressure) [6]: −25% | ΔH (change in heart rate) [6]: −12% | RI (recovery index) [6]: 0.5 min | Onset [6]: 0.8 min

CC(=O)Oc1ccc(C[N+]2(C)[C@@H]3CC[C@H]2C[C@@H](OC(=O)CCCC(=O)O[C@H]2C[C@H]4CC[C@@H](C2)[N+]4(C)Cc2ccc(OC(C)=O)c(OC(C)=O)c2)C3)cc1OC(C)=O.[Br-].[Br-] (stereo partly drawn) [bis[N-(3,4-diacetoxybenzyl)tropanium-3α-yl]glutarate dibromide]
ED50 [1]: 0.088 mg/kg | ΔBP (change in arterial blood pressure) [1]: 0% | ΔH (change in heart rate) [1]: 0% | RI (recovery index) [1]: 0.8 min | Onset [1]: 1 min | ED50 [2]: 0.11 mg/kg | ΔBP (change in arterial blood pressure) [2]: 0% | ΔH (change in heart rate) [2]: 0% | RI (recovery index) [2]: 0.6 min | Onset [2]: 0.9 min | ED50 [3]: 0.23 mg/kg | VB (vagal block) [3]: 41% | ΔBP (change in arterial blood pressure) [3]: 0% | ΔH (change in heart rate) [3]: 0% | RI (recovery index) [3]: 1.1 min | Onset [3]: 0.95 min | ED50 [4]: 0.232 mg/kg | VB (vagal block) [4]: 10% | ΔBP (change in arterial blood pressure) [4]: 0% | ΔH (change in heart rate) [4]: 0% | RI (recovery index) [4]: 0.6 min | Onset [4]: 0.75 min | ED50 [5]: 0.065 mg/kg | ΔBP (change in arterial blood pressure) [5]: 0% | ΔH (change in heart rate) [5]: 0% | RI (recovery index) [5]: 0.7 min | Onset [5]: 0.9 min | ED50 [6]: 0.183 mg/kg | VB (vagal block) [6]: 8% | ΔBP (change in arterial blood pressure) [6]: 0% | ΔH (change in heart rate) [6]: 0% | RI (recovery index) [6]: 0.6 min | Onset [6]: 1 min

COc1cc(C[N+]2(C)[C@@H]3CC[C@H]2C[C@@H](OC(=O)C2CCC2C(=O)O[C@H]2C[C@H]4CC[C@@H](C2)[N+]4(C)Cc2ccc(OC(C)=O)c(OC)c2)C3)ccc1OC(C)=O.[Br-].[Br-] (stereo partly drawn) [bis[N-(4-acetoxy-3-methoxybenzyl)tropanium-3α-yl]cyclobutane-1,2-dicarboxylate dibromide]
ED50 [1]: 0.092 mg/kg | ΔBP (change in arterial blood pressure) [1]: 0% | ΔH (change in heart rate) [1]: 0% | RI (recovery index) [1]: 0.5 min | Onset [1]: 0.75 min | ED50 [2]: 0.145 mg/kg | ΔBP (change in arterial blood pressure) [2]: −15% | ΔH (change in heart rate) [2]: 45% | RI (recovery index) [2]: 0.7 min | Onset [2]: 0.85 min | ED50 [3]: 0.268 mg/kg | VB (vagal block) [3]: 46% | ΔBP (change in arterial blood pressure) [3]: 0% | ΔH (change in heart rate) [3]: 0% | RI (recovery index) [3]: 0.87 min | Onset [3]: 0.5 min | ED50 [4]: 0.35 mg/kg | VB (vagal block) [4]: 20% | ΔBP (change in arterial blood pressure) [4]: 0% | ΔH (change in heart rate) [4]: 0% | RI (recovery index) [4]: 0.5 min | Onset [4]: 0.6 min | ED50 [5]: 0.075 mg/kg | ΔBP (change in arterial blood pressure) [5]: 0% | ΔH (change in heart rate) [5]: 0% | RI (recovery index) [5]: 0.55 min | Onset [5]: 0.6 min | ED50 [6]: 0.16 mg/kg | VB (vagal block) [6]: 20% | ΔBP (change in arterial blood pressure) [6]: 0% | ΔH (change in heart rate) [6]: 0% | RI (recovery index) [6]: 0.5 min | Onset [6]: 0.9 min
